Key:
LoVo cells = assay: Cell cycle analysis (flow cytometry, propidium iodide); format: cell-based, human; details: 2.5 and 5 µM, 24 h
Procedure: LoVo cells (1 × 10^5 cells/well) were seeded into a 6-well plate and incubated at 37 °C and 5% CO2 atmosphere overnight. The seeded cells were then treated with different concentrations of tested compounds for 24 h. Upon completion, cells were trypsinized and washed with PBS followed by fixation with 70% ethanol overnight at 4 °C. Then, the fixed cells were centrifuged at 160× g for 5 min and the resultant cell pellet was washed twice with PBS. Subsequently, 20 μL of DNAse-free RNAse A solution (1 mg/mL) was added to the cell-containing PBS and further incubated for 15 min. Upon completion, 10 μL of propidium iodide staining buffer (10 mg/mL) was added and the resulting mixture was further incubated for 20 min at 4 °C in the dark. Lastly, samples were analyzed with a flow-cytometer (ACEA Biosciences, Inc., San Diego, CA, USA) at the PE channel. The values presented are the means ± SD of three independent experiments.

caspase-8 = assay: Western blot, caspase-8; format: cell-based, human; details: 5 µM, LoVo cells
Procedure: Lovo cells (1.5 × 10^4 cells/cm^2) were seeded in a T75 flask and incubated at 37 °C and 5% CO2 atmosphere overnight. The seeded cells were then treated with selected compounds at 5 µM of 2e for 24 h, 48 h, and 72 h. After treatment, the cells were harvested and lysed with phenylmethanesulfonyl fluoride (PMSF)-containing cell lysis buffer. The lysates were then centrifuged at 13,300× g for 15 min and the supernatant was collected. Protein concentrations of all samples were determined using a BCA assay kit (Thermo Scientific Inc., Waltham, MA, USA). Equal amounts of protein were electrophoresed in 12% and 20% SDS-polyacrylamide gel (SDS-PAGE), and electro-transferred onto a 0.22-μm polyvinyldene difluoride membrane. Each membrane was blocked with 5% (w/v) skim milk at room temperature for 1 h followed by overnight incubation with specific primary antibodies (1:1000) at 4 °C. Subsequently, the respective membrane was washed thrice with TBST (0.05% (v/v) of tween-20) followed by 1 h incubation with secondary antibody (1:10,000). Upon completion, the membrane was washed thrice with 1X Tris-Buffered Saline, 0.1% Tween® 20 Detergent (TBST) and the immune reactive bands were developed using SuperSignal West Dura Extended Duration Substrate (Thermo Scientific Inc., Waltham, MA, USA). […]

Structure (SMILES): O=C1C(=Cc2ccccc2Br)CSCC1=Cc1ccccc1Br [Compound 2e, 3,5-Bis(2-bromobenzylidene)tetrahydro-4H-thiopyran-4-one]
- cell cycle effect (LoVo cells): induce G2/M-phase cell arrest
- caspase-8 cleavage (caspase-8): unaffected
